{"source": "patent US20100099564A1", "about": "“HERBICIDE COMBINATION COMPRISING DIMETHOXYTRIAZINYL-SUBSTITUTED DIFLUOROMETHANESULFONYLANILIDES” (BAYER CROPSCIENCE AG, priority 2008, published 2010)", "format_in_all_cases": "in vivo", "key": {"[1]": {"system": "Triticum aestivum (TRZAS)", "assay": "Post-emergence action, greenhouse pot test, visual scoring: TRZAS", "conditions": "for (7) % activity found: 21 DAT", "experimental": "(§1) Seeds or rhizome pieces of mono- and dicotyledonous harmful and useful plants were placed in peat pots (diameter 4 cm) filled with sandy loam and then covered with soil. The pots were kept in a greenhouse under optimum conditions. In addition, harmful plants encountered in paddy rice cultivation were cultivated in pots with a water level 2 cm above the soil surface.\n(§2) About three weeks after the start of the cultivation, the test plants were treated at the 2- to 3-leaf stage. The herbicides, formulated as powder or liquid concentrates, were, either alone or in the combinations according to the invention, sprayed in various dosages on to the green parts of the plants using an application rate of 600 l of water/ha (converted). For further cultivation of the plants, the pots were then again kept under optimum conditions in a greenhouse.\n(§3) The visual scoring of the herbicidal effects was carried out in intervals up to 21 days after the treatment. Scoring was carried out in percent in comparison to the untreated control plants. 0%=no herbicidal activity, 100%=complete herbicidal activity=complete kill.\n(§4) The percentages from the treatments with the herbicides alone (=individual application) and with the combinations according to the invention (=mixtures) were employed to calculate interactions using the method of Colby. When the observed efficacies of the mixtures exceed the formal sum of the values of the tests with individual applications, they also exceed the expected value according to Colby, which is calculated using the formula below (cf. S. R. Colby; in Weeds 15 (1967) pp. 20 to 22):\n(§5) Here: • A, B=activity of components A and B in percent at a dosage of a and b g of ai/ha (=gramm of active substance per hectare), respectively. • E=expected value in % at a dosage of a+b g of ai/ha.\n(§6) The combinations according to the invention of herbicides from group (A) with herbicides from group (B) were tested on a broad spectrum of important harmful plants (weed grasses, broad-leaved weeds/Cyperaceae) and useful plants: Triticum aestivum (TRZAS), Stellaria media (STEME), Lolium multiflorum (LOLMU), Veronica persica (VERPE), Alopecurus myosuroides (ALOMY), Matricaria inodora (MATIN), Brassica napus (BRSNW), Viola tricolor (VIOTR), Avena fatua (AVEFA), Amaranthus retroflexus (AMARE), Zea mays (ZEAMX), Pharbitis purpurea (PHBPU), Setaria viridis (SETVI), Fallopia (ex Polygonum) convolvulus (POLCO), Echinochloa crusgaffi (ECHCG), Abuthilon theophrasti (ABUTH), Cyperus esculentus (CYPES), Oryza sativa (ORYSA).\n(§7) Of particular interest are the results shown in the tables (Tab.) below, where the following key is used: • (1) EPPO code (former Bayer code) for the treated plant (see above) • (2) Time of scoring: DAT (days after treatment) • (3) Component A tested (identifying number) • (4) Component B tested (identifying number) • (5) Dosage component A [g of ai/ha] • (6) Dosage component B [g of ai/ha] • (7) % activity found • (8) E value (calculated according to Colby; see above) • (9) Comments: “SYNERGY” =synergistic interaction (E value<% activity found); “SAFENING”=safener action on useful plant (E value>% activity found)"}, "Stellaria media (STEME)": {"system": "Stellaria media (STEME)", "assay": "Post-emergence action, greenhouse pot test, visual scoring: STEME", "conditions": "10 DAT", "experimental": "as §1, §2, §3, §4, §5, §6, §7"}, "Veronica persica (VERPE)": {"system": "Veronica persica (VERPE)", "assay": "Post-emergence action, greenhouse pot test, visual scoring: VERPE", "experimental": "as §1, §2, §3, §4, §5, §6, §7"}, "[2]": {"system": "Alopecurus myosuroides (ALOMY)", "assay": "Post-emergence action, greenhouse pot test, visual scoring: ALOMY", "conditions": "for (7) % activity found: 21 DAT", "experimental": "as §1, §2, §3, §4, §5"}, "[3]": {"system": "Matricaria inodora (MATIN)", "assay": "Post-emergence action, greenhouse pot test, visual scoring: MATIN", "conditions": "dose (6) 100", "experimental": "as §1, §2, §3, §4, §5"}, "Viola tricolor (VIOTR)": {"system": "Viola tricolor (VIOTR)", "assay": "Post-emergence action, greenhouse pot test, visual scoring: VIOTR", "conditions": "21 DAT; dose (6) 100", "experimental": "as §1, §2, §3, §4, §5, §6, §7"}, "Avena fatua (AVEFA)": {"system": "Avena fatua (AVEFA)", "assay": "Post-emergence action, greenhouse pot test, visual scoring: AVEFA", "experimental": "as §1, §2, §3, §4, §5, §6, §7"}, "[4]": {"system": "Amaranthus retroflexus (AMARE)", "assay": "Post-emergence action, greenhouse pot test, visual scoring: AMARE", "conditions": "21 DAT; dose (6) 300", "experimental": "as §1, §2, §3, §4, §5"}, "[5]": {"system": "Pharbitis purpurea (PHBPU)", "assay": "Post-emergence action, greenhouse pot test, visual scoring: PHBPU", "conditions": "21 DAT", "experimental": "as §1, §2, §3, §4, §5, §6, §7"}, "[6]": {"system": "Fallopia (ex Polygonum) convolvulus (POLCO)", "assay": "Post-emergence action, greenhouse pot test, visual scoring: POLCO", "conditions": "21 DAT", "experimental": "as §1, §2, §3, §4, §5, §6, §7"}, "[7]": {"system": "Abuthilon theophrasti (ABUTH)", "assay": "Post-emergence action, greenhouse pot test, visual scoring: ABUTH", "conditions": "21 DAT", "experimental": "as §1, §2, §3, §4, §5, §6, §7"}, "[8]": {"system": "Cyperus esculentus (CYPES)", "assay": "Post-emergence action, greenhouse pot test, visual scoring: CYPES", "conditions": "for (7) % activity found: rate (6) 18", "experimental": "as §1, §2, §3, §4, §5"}, "[9]": {"system": "Lolium multiflorum (LOLMU)", "assay": "Post-emergence action, greenhouse pot test, visual scoring: LOLMU", "conditions": "for % activity found: 10 DAT; for (7) % activity found: 21 DAT", "experimental": "as §1, §2, §3, §4, §5, §6, §7"}, "Setaria viridis (SETVI)": {"system": "Setaria viridis (SETVI)", "assay": "Post-emergence action, greenhouse pot test, visual scoring: SETVI", "conditions": "21 DAT", "experimental": "as §1, §2, §3, §4, §5, §6, §7"}, "[10]": {"system": "Echinochloa crusgaffi (ECHCG)", "assay": "Post-emergence action, greenhouse pot test, visual scoring: ECHCG", "conditions": "10 DAT", "experimental": "as §1, §2, §3, §4, §5, §6, §7"}}}
{"smiles": "CCCOCCN(C(=O)CCl)c1c(CC)cccc1CC", "note": "[B4-8, 2-chloro-N-(2,6-diethylphenyl)-N-(2-propoxyethyl)acetamide]", "values": [{"measurement": "plant injury at 300 g/ha", "setting": "[1]; Triticum aestivum, post-emergence, 240 h, 10 DAT, B 300 g of ai/ha, read-out: % activity found", "value": 10, "unit": "%"}, {"measurement": "% activity found", "setting": "Stellaria media (STEME); dose (6) 100", "value": 10, "unit": "%"}, {"measurement": "% activity found", "setting": "Stellaria media (STEME); dose (6) 300", "value": 10, "unit": "%"}, {"measurement": "% activity found", "setting": "Veronica persica (VERPE); 10 DAT, dose (6) 100", "value": 0, "unit": "%"}, {"measurement": "% activity found", "setting": "Veronica persica (VERPE); 10 DAT, dose (6) 300", "value": 0, "unit": "%"}, {"measurement": "% activity found", "setting": "Veronica persica (VERPE); 21 DAT, dose (6) 100", "value": 0, "unit": "%"}, {"measurement": "% activity found", "setting": "Veronica persica (VERPE); 21 DAT, dose (6) 300", "value": 0, "unit": "%"}, {"measurement": "pest or weed control at 100 g/ha", "setting": "[2]; Alopecurus myosuroides, post-emergence, 240 h, 10 DAT, B 100 g of ai/ha, read-out: % activity found", "value": 10, "unit": "%"}, {"measurement": "% activity found", "setting": "[3]; 10 DAT", "value": 0, "unit": "%"}, {"measurement": "% activity found", "setting": "[3]; 21 DAT", "value": 0, "unit": "%"}, {"measurement": "% activity found", "setting": "Viola tricolor (VIOTR)", "value": 10, "unit": "%"}, {"measurement": "% activity found", "setting": "Avena fatua (AVEFA); 10 DAT, dose (6) 100", "value": 0, "unit": "%"}, {"measurement": "% activity found", "setting": "Avena fatua (AVEFA); 21 DAT, dose (6) 100", "value": 0, "unit": "%"}, {"measurement": "% activity found", "setting": "Avena fatua (AVEFA); 21 DAT, dose (6) 300", "value": 30, "unit": "%"}, {"measurement": "% activity found", "setting": "[4]", "value": 20, "unit": "%"}, {"measurement": "% activity found", "setting": "[5]; dose (6) 100", "value": 0, "unit": "%"}, {"measurement": "% activity found", "setting": "[5]; dose (6) 300", "value": 0, "unit": "%"}, {"measurement": "% activity found", "setting": "[6]; dose (6) 100", "value": 0, "unit": "%"}, {"measurement": "% activity found", "setting": "[6]; dose (6) 300", "value": 20, "unit": "%"}, {"measurement": "% activity found", "setting": "[7]; dose (6) 100", "value": 0, "unit": "%"}, {"measurement": "% activity found", "setting": "[7]; dose (6) 300", "value": 0, "unit": "%"}, {"measurement": "% activity found", "setting": "[8]; 21 DAT, dose (6) 100", "value": 0, "unit": "%"}, {"measurement": "% activity found", "setting": "[8]; 21 DAT, dose (6) 300", "value": 0, "unit": "%"}]}
{"smiles": "COc1cc(OC)nc(NC(=O)NS(=O)(=O)Nc2ccccc2C(=O)C2CC2)n1", "note": "[B7-7, N-[[[2-(cyclopropylcarbonyl)phenyl]amino]sulfonyl]-N′-(4,6-dimethoxy-2-pyrimidinyl)urea]", "values": [{"measurement": "(7) % activity found", "setting": "[1]; rate (6) 18", "value": 0, "unit": "%"}, {"measurement": "(7) % activity found", "setting": "[1]; rate (6) 54", "value": 0, "unit": "%"}, {"measurement": "% activity found", "setting": "[9]; dose (6) 18", "value": 0, "unit": "%"}, {"measurement": "% activity found", "setting": "[9]; dose (6) 54", "value": 0, "unit": "%"}, {"measurement": "(7) % activity found", "setting": "[9]; rate (6) 18", "value": 0, "unit": "%"}, {"measurement": "(7) % activity found", "setting": "[9]; rate (6) 54", "value": 0, "unit": "%"}, {"measurement": "(7) % activity found", "setting": "[2]; rate (6) 18", "value": 30, "unit": "%"}, {"measurement": "(7) % activity found", "setting": "[2]; rate (6) 54", "value": 40, "unit": "%"}, {"measurement": "% activity found", "setting": "Avena fatua (AVEFA); 10 DAT, dose (6) 18", "value": 0, "unit": "%"}, {"measurement": "% activity found", "setting": "Avena fatua (AVEFA); 10 DAT, dose (6) 54", "value": 30, "unit": "%"}, {"measurement": "(7) % activity found", "setting": "Avena fatua (AVEFA); 21 DAT, rate (6) 18", "value": 0, "unit": "%"}, {"measurement": "(7) % activity found", "setting": "Avena fatua (AVEFA); 21 DAT, rate (6) 54", "value": 10, "unit": "%"}, {"measurement": "(7) % activity found", "setting": "Setaria viridis (SETVI); rate (6) 18", "value": 20, "unit": "%"}, {"measurement": "(7) % activity found", "setting": "Setaria viridis (SETVI); rate (6) 54", "value": 20, "unit": "%"}, {"measurement": "(7) % activity found", "setting": "[10]; rate (6) 18", "value": 0, "unit": "%"}, {"measurement": "(7) % activity found", "setting": "[10]; rate (6) 54", "value": 0, "unit": "%"}, {"measurement": "(7) % activity found", "setting": "[8]; 10 DAT", "value": 0, "unit": "%"}, {"measurement": "(7) % activity found", "setting": "[8]; 21 DAT", "value": 40, "unit": "%"}]}
